Measured values reported in patent publication US7855212B2, “Pyridinyl acetonitriles” (Merck Serono SA, priority 2003, dated 2010).

Target: human GSK3 beta (Homo sapiens, UniProt P49841)
Assay: GSK3β in vitro assay (33P phosphorylation of phospho GS2 peptide)
Format: biochemical
Conditions: in vitro potency on human GSK3 beta; read-out: IC50 (μM) GSK3beta
Protocol: GSK3β Assay (see Bioorg. Med. Chem. Lett by Naerum et al. 12 p. 1525-1528 (2002))
In a final reaction volume of 25 μl, GSK3β (h) (5-10 mU) is incubated with 8 mM MOPS pH 7.0, 0.2 mM EDTA, 20 μM […](p)EDEEE (being the GSK3 substrate; a phospho GS2 peptide), 10 mM Mg Acetate and [γ-^33P-ATP] (Specific activity approx. 500 cpm/pmol, concentration as required). The reaction is initiated by the addition of Mg^2+ [γ-^33P-ATP]. After incubation for 40 minutes at room temperature, the reaction is stopped by the addition of 5 μl of a 3% phosphoric acid solution. 10 μl of the reaction is then spotted onto a P30 filtermat and washed three times for 5 minutes in 50 mM phosphoric acid and once in methanol prior to drying and the degree of phosphorylation of the substrate is determined by scintillation counting.

Sequence of human GSK3 beta (P49841 whole entry): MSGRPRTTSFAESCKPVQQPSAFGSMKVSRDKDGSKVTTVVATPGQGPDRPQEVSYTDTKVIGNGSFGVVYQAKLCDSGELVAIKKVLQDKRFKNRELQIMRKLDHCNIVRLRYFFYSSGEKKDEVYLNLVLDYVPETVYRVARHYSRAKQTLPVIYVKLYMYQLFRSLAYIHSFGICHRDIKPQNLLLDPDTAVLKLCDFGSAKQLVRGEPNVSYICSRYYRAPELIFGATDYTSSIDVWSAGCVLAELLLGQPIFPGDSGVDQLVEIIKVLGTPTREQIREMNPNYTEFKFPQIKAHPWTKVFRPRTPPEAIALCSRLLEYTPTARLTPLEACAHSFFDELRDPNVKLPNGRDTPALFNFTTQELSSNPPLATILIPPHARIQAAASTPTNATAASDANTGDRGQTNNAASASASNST

Compound | IC50 [µM]
Cc1cnc(NC2CC2)nc1/C(C#N)=C1/C=CC=CN1 [Example 15, 4-pyrimidineacetonitrile, 2-(cyclopropylamino)-5-methyl-alpha-2-pyridinyl-] | 0.2
CCCC(C)Nc1ncc(C)c(/C(C#N)=C2/C=CC=CN2)n1 (stereo not drawn) [Example 25, 4-pyrimidineacetonitrile, 5-methyl-2-[(1-methylbutyl)amino]-alpha-2-pyridinyl-] | 0.17

The next lines start with the values.

IC50 [µM] | Compound
0.5 | Cc1cnc(NCCc2cccnc2)nc1/C(C#N)=C1/C=CC=CN1 [Example 3, 4-pyrimidineacetonitrile, 5-methyl-2-[[2-(3-pyridinyl)ethyl]amino]-alpha-2(1H)-pyridinylidene-]
1.5 | N#CC(=C1C=CNC=C1)c1ccnc(NCCc2cccnc2)n1 [Example 34, 4-pyrimidineacetonitrile, alpha-4-pyridinyl-2-[[2-(3-pyridinyl)ethyl]amino]-]
7.7 | CNc1nc(NCCc2cccnc2)nc(/C(C#N)=C2/C=CC=CN2)n1 [Example 49, 1,3,5-triazine-2-acetonitrile, 4-(methylamino)-alpha-2-pyridinyl-6-[[2-(3-pyridinyl)ethyl]amino]-]

Target: rat JNK3 (Rattus norvegicus, UniProt P49187)
Sequence (P49187 whole entry): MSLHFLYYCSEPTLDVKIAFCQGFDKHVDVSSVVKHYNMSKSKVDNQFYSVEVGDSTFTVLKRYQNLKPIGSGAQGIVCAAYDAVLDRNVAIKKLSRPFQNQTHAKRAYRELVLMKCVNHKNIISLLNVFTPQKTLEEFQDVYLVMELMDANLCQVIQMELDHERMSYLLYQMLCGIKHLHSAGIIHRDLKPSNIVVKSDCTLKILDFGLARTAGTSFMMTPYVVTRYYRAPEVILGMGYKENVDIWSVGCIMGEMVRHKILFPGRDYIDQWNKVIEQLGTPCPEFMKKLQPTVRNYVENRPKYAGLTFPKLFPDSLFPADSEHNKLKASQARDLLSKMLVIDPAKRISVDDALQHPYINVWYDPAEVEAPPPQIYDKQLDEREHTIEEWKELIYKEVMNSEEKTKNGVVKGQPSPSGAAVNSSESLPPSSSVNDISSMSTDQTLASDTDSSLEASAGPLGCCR
Assay: JNK3 in vitro assay (33P incorporation into c-Jun, SPA)
Format: biochemical
Conditions: in vitro potency on rat JNK3; read-out: JUNK3 IC50
Protocol: The compounds of the present invention are inhibitors of JNKs. The phosphorylation of c-jun by JNK2 or JNK3 may be determined by monitoring the incorporation of ^33P into c-jun following the protocol below. The inhibitory activity of the compounds according to formula I, towards c-jun phosphorylation through JNK, is determined by calculating phosphorylation activity in the presence or absence of compounds according to formula I.
JNK3 and/or -2 assays are performed in 96 well MIT plates: incubation of 0.5 μg of recombinant, pre-activated GST-JNK3 or GST-JNK2 with 1 μg of recombinant, biotinylated GST-c-Jun and 2 μM ^33γ-ATP (2 nCi/μl), in the presence or absence of compounds according to formula I and in a reaction volume of 50 μl containing 50 mM Tris-HCl, pH 8.0; 10 mM MgCl2; 1 mM Dithiothreitol, and 100 μM NaVO4. The incubation is performed for 120 min. at R.T and stopped upon addition of 200 μl of a solution containing 250 μg of Streptavidine-coated SPA beads (Amersham, Inc.)*, 5 mM EDTA, 0.1% Triton X-100 and 50 μM ATP, in phosphate saline buffer.
After incubation for 60 minutes at RT, beads are sedimented by centrifugation at 1500×g for 5 minutes, resuspended in 200 μl of PBS containing 5 mM EDTA, 0.1% Triton X-100 and 50 μM ATP and the radioactivity measured in a scintillation β counter, following sedimentation of the beads as described above.

Compound | IC50 [µM]
Cc1cnc(NCCc2ccc(N(C)C)nc2)nc1/C(C#N)=C1/C=CC=CN1 [Example 4, 4-pyrimidineacetonitrile, 2-[[2-[6-(dimethylamino)-3-pyridinyl]ethyl]amino]-5-methyl-alpha-2(1H)-pyridinylidene-] | 0.48
Cc1cnc(NC2CCCCC2)nc1/C(C#N)=C1/C=CC=CN1 [Example 8, 4-pyrimidineacetonitrile, 2-(cyclohexylamino)-5-methyl-alpha-2-pyridinyl-] | 0.07
Cc1cnc(NC2CC2)nc1/C(C#N)=C1/C=CC=CN1 [Example 15, 4-pyrimidineacetonitrile, 2-(cyclopropylamino)-5-methyl-alpha-2-pyridinyl-] | 0.299
Cc1cnc(NC2CCN(Cc3ccccc3)CC2)nc1/C(C#N)=C1/C=CC=CN1 [Example 16, 4-pyrimidineacetonitrile, 5-methyl-2-[[1-(phenylmethyl)-4-piperidinyl]amino]-alpha-2(1H)-pyridinylidene-] | 0.665
Cc1cnc(NC(C)C)nc1/C(C#N)=C1/C=CC=CN1 [Example 21, 4-pyrimidineacetonitrile, 5-methyl-2-[(1-methylethyl)amino]-alpha-2(1H)-pyridinylidene-] | 0.31
Cc1cnc(N[C@H]2CCCC[C@@H]2O)nc1/C(C#N)=C1/C=CC=CN1 [Example 22, 4-pyrimidineacetonitrile, 2-[[(1S,2S)-2-hydroxycyclohexyl]amino]-5-methyl-alpha-2(1H)-pyridinylidene-] | 0.74
Cc1cnc(Cl)nc1/C(C#N)=C1/C=CC=CN1 [Intermediate 5, 4-pyrimidineacetonitrile, 2-chloro-5-methyl-alpha-2(1H)-pyridinylidene-] | 2.35

The remaining lines, values ahead:

IC50 [µM] | Compound
0.486 | Cc1cnc(NCC2CCCCC2)nc1/C(C#N)=C1/C=CC=CN1 [Example 9, 4-pyrimidineacetonitrile, 2-[(cyclohexylmethyl)amino]-5-methyl-alpha-2 pyridinyl-]
0.106 | Cc1cnc(NC2CCC2)nc1/C(C#N)=C1/C=CC=CN1 [Example 11, 4-pyrimidineacetonitrile, 2-(cyclobutylamino)-5-methyl-alpha-2(1H)-pyridinylidene]
1.14 | Cc1cnc(NC2CCN(C(=O)OC(C)(C)C)CC2)nc1/C(C#N)=C1/C=CC=CN1 [Example 12, 1-piperidinecarboxylic acid, 4-[[4-[(E)-cyano-2(1H)-pyridinylidenemethyl]-5-methyl-2-pyrimidinyl]amino]-, 1,1-dimethylethyl ester]
6.2 | CCN1C=CC=C/C1=C(\C#N)c1nc(NC2CCCC2)ncc1C [Example 14, 4-pyrimidineacetonitrile, 2-(cyclopentylamino)-alpha-(1-ethyl-2(1H)-pyridinylidene)-5-methyl]
0.21 | Cc1cnc(NCC(C)C)nc1/C(C#N)=C1/C=CC=CN1 [Example 20, 4-pyrimidineacetonitrile, 5-methyl-2-[(2-methylpropyl)amino]-alpha-2(1H)-pyridinylidene-]
